Source: PubChem BioAssay (NCI)
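48-hour exposure; five concentrations; linearly interpolated endpoints. GI50: concentration for 50% inhibition of growth. Definition used: TGI = concentration required for complete inhibition of growth.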

Key:
Assay in all cases: inhibition of tumour cell growth, NCI panel, 48 h
HS 578T breast = system: HS 578T breast
OVCAR-5 ovarian = system: OVCAR-5 ovarian
SW-620 colon = system: SW-620 colon
CCRF-CEM leukemia = system: CCRF-CEM leukemia
KM12 colon = system: KM12 colon
CAKI-1 renal = system: CAKI-1 renal
UACC-257 melanoma = system: UACC-257 melanoma
SNB-19 CNS = system: SNB-19 CNS
NCI-H226 lung = system: NCI-H226 lung
SK-MEL-5 melanoma = system: SK-MEL-5 melanoma
U251 CNS = system: U251 CNS
SN12C renal = system: SN12C renal
HCT-116 colon = system: HCT-116 colon
SK-OV-3 ovarian = system: SK-OV-3 ovarian
HT29 colon = system: HT29 colon
IGROV1 ovarian = system: IGROV1 ovarian
NCI-H23 lung = system: NCI-H23 lung
RXF 393 renal = system: RXF 393 renal
OVCAR-8 ovarian = system: OVCAR-8 ovarian
HCT-15 colon = system: HCT-15 colon
SF-295 CNS = system: SF-295 CNS
BT-549 breast = system: BT-549 breast
RPMI-8226 leukemia = system: RPMI-8226 leukemia
SK-MEL-28 melanoma = system: SK-MEL-28 melanoma
T-47D breast = system: T-47D breast
PC-3 prostate = system: PC-3 prostate
EKVX NSCLC = system: EKVX NSCLC
OVCAR-4 ovarian = system: OVCAR-4 ovarian
A498 renal = system: A498 renal
LOX IMVI melanoma = system: LOX IMVI melanoma
OVCAR-3 ovarian = system: OVCAR-3 ovarian
COLO 205 colon = system: COLO 205 colon
786-0 renal = system: 786-0 renal
MDA-MB-435 = system: MDA-MB-435
SF-268 CNS = system: SF-268 CNS
A549 NSCLC = system: A549 NSCLC
ACHN renal = system: ACHN renal
SNB-75 CNS = system: SNB-75 CNS
NCI/ADR-RES ovarian = system: NCI/ADR-RES ovarian
HCC-2998 colon = system: HCC-2998 colon
MOLT-4 leukemia = system: MOLT-4 leukemia
MCF7 breast = system: MCF7 breast
UACC-62 melanoma = system: UACC-62 melanoma
NCI-H460 lung = system: NCI-H460 lung
SK-MEL-2 melanoma = system: SK-MEL-2 melanoma
DU-145 prostate = system: DU-145 prostate
HOP-92 NSCLC = system: HOP-92 NSCLC
HL-60(TB) leukemia = system: HL-60(TB) leukemia
M14 melanoma = system: M14 melanoma
TK-10 renal = system: TK-10 renal
SR leukemia = system: SR leukemia
UO-31 renal = system: UO-31 renal
HOP-62 NSCLC = system: HOP-62 NSCLC
SF-539 CNS = system: SF-539 CNS
MDA-MB-231 breast = system: MDA-MB-231 breast
MALME-3M melanoma = system: MALME-3M melanoma

Q: What does the source list for C#C[C@]1(O)CC[C@H]2[C@@H]3CC=C4c5sc(Nc6ncccc6C)nc5CC[C@]4(C)[C@H]3CC[C@@]21C?
A: GI50 (HS 578T breast): 0.424 µM; TGI (HS 578T breast): 2.3 µM; GI50 (OVCAR-5 ovarian): 1.83 µM; TGI (OVCAR-5 ovarian): 4.39 µM; GI50 (SW-620 colon): 1.53 µM; TGI (SW-620 colon): 3.1 µM; GI50 (CCRF-CEM leukemia): 1.01 µM; TGI (CCRF-CEM leukemia): 4.46 µM; GI50 (KM12 colon): 1.66 µM; TGI (KM12 colon): 4.55 µM; GI50 (CAKI-1 renal): 1.35 µM; TGI (CAKI-1 renal): 3.28 µM; GI50 (UACC-257 melanoma): 1.64 µM; TGI (UACC-257 melanoma): 4.29 µM; GI50 (SNB-19 CNS): 1.88 µM; TGI (SNB-19 CNS): 6.58 µM; GI50 (NCI-H226 lung): 1.49 µM; TGI (NCI-H226 lung): 3.4 µM; GI50 (SK-MEL-5 melanoma): 1.57 µM; TGI (SK-MEL-5 melanoma): 2.96 µM; GI50 (U251 CNS): 0.753 µM; TGI (U251 CNS): 3.34 µM; GI50 (SN12C renal): 1.83 µM; TGI (SN12C renal): 4.16 µM; GI50 (HCT-116 colon): 1.04 µM; TGI (HCT-116 colon): 2.51 µM; GI50 (SK-OV-3 ovarian): 1.85 µM; TGI (SK-OV-3 ovarian): 4.66 µM; GI50 (HT29 colon): 1.6 µM; TGI (HT29 colon): 3.99 µM; GI50 (IGROV1 ovarian): 2.45 µM; TGI (IGROV1 ovarian): 8.96 µM; GI50 (NCI-H23 lung): 1.77 µM; TGI (NCI-H23 lung): 6.24 µM; GI50 (RXF 393 renal): 0.15 µM; TGI (RXF 393 renal): 0.456 µM; GI50 (OVCAR-8 ovarian): 1.99 µM; TGI (OVCAR-8 ovarian): 13.6 µM; GI50 (HCT-15 colon): 1.36 µM; TGI (HCT-15 colon): 3 µM; GI50 (SF-295 CNS): 0.246 µM; TGI (SF-295 CNS): 0.694 µM; GI50 (BT-549 breast): 1.17 µM; TGI (BT-549 breast): 4.12 µM; GI50 (RPMI-8226 leukemia): 0.264 µM; TGI (RPMI-8226 leukemia): 0.681 µM; GI50 (SK-MEL-28 melanoma): 0.425 µM; TGI (SK-MEL-28 melanoma): 1.64 µM; GI50 (T-47D breast): 2.11 µM; TGI (T-47D breast): 8.52 µM; GI50 (PC-3 prostate): 0.603 µM; TGI (PC-3 prostate): 8.67 µM; GI50 (EKVX NSCLC): 1.34 µM; TGI (EKVX NSCLC): 9.53 µM; GI50 (OVCAR-4 ovarian): 1.9 µM; TGI (OVCAR-4 ovarian): 11.3 µM; GI50 (A498 renal): 0.454 µM; TGI (A498 renal): 1.91 µM; GI50 (LOX IMVI melanoma): 1.32 µM; TGI (LOX IMVI melanoma): 2.72 µM; GI50 (OVCAR-3 ovarian): 2.04 µM; TGI (OVCAR-3 ovarian): 5.29 µM; GI50 (COLO 205 colon): 1.8 µM; TGI (COLO 205 colon): 3.9 µM; GI50 (786-0 renal): 0.355 µM; TGI (786-0 renal): 1.43 µM; GI50 (MDA-MB-435): 2.08 µM; TGI (MDA-MB-435): 6.39 µM; GI50 (SF-268 CNS): 1.86 µM; TGI (SF-268 CNS): 7.3 µM; GI50 (A549 NSCLC): 2.05 µM; TGI (A549 NSCLC): 12.8 µM; GI50 (ACHN renal): 1.85 µM; TGI (ACHN renal): 10.7 µM; GI50 (SNB-75 CNS): 0.568 µM; TGI (SNB-75 CNS): 5.44 µM; GI50 (NCI/ADR-RES ovarian): 1.81 µM; TGI (NCI/ADR-RES ovarian): 6.15 µM; GI50 (HCC-2998 colon): 2.53 µM; TGI (HCC-2998 colon): 6.71 µM; GI50 (MOLT-4 leukemia): 0.561 µM; TGI (MOLT-4 leukemia): 2.7 µM; GI50 (MCF7 breast): 1.05 µM; TGI (MCF7 breast): 3.15 µM; GI50 (UACC-62 melanoma): 1.55 µM; TGI (UACC-62 melanoma): 3.43 µM; GI50 (NCI-H460 lung): 1.27 µM; TGI (NCI-H460 lung): 2.86 µM; GI50 (SK-MEL-2 melanoma): 1.28 µM; TGI (SK-MEL-2 melanoma): 4.35 µM; GI50 (DU-145 prostate): 2.24 µM; TGI (DU-145 prostate): 7.46 µM; GI50 (HOP-92 NSCLC): 2.31 µM; TGI (HOP-92 NSCLC): 5.99 µM; GI50 (HL-60(TB) leukemia): 1.4 µM; TGI (HL-60(TB) leukemia): 3.76 µM; GI50 (M14 melanoma): 1.29 µM; TGI (M14 melanoma): 3.43 µM; GI50 (TK-10 renal): 2.56 µM; TGI (TK-10 renal): 6.82 µM; GI50 (SR leukemia): 0.493 µM; TGI (SR leukemia): 2.46 µM; GI50 (UO-31 renal): 1.23 µM; TGI (UO-31 renal): 2.82 µM; GI50 (HOP-62 NSCLC): 1.35 µM; TGI (HOP-62 NSCLC): 3.31 µM; GI50 (SF-539 CNS): 0.335 µM; TGI (SF-539 CNS): 1.31 µM; GI50 (MDA-MB-231 breast): 1.65 µM; TGI (MDA-MB-231 breast): 4.39 µM; GI50 (MALME-3M melanoma): 1.78 µM; TGI (MALME-3M melanoma): 4.85 µM
